Measurements published in US20230167127A1, “COMPOUNDS AND THEIR USE IN THE TREATMENT OF BACTERIAL INFECTION” (Hoffmann-La Roche Inc., priority 2020, published 2023).

Each compound was assayed on Escherichia coli ATCC 25922 (assay: 50% growth inhibitory concentration (IC50) determination, Iso-Sensitest broth dilution). Conditions: Escherichia coli, ATCC25922, 16 h, strain Escherichia coli ATCC 25922; 10-point broth dilution, optical density at 600 nm over 16 h; read-out: Escherichia coli growth inhibition IC50.
Type: cell-based
Outline: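 10-point twofold Iso-Sensitest broth dilution (e.g. 50 to 0.097 μM final) with DMSO stocks, incubated at 35±2° C. Growth followed by OD 600 nm every 20 min over 16 h; IC50 derived from growth inhibition during logarithmic phase.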

Compound	IC50 [nM]
N[C@@H]1c2cccc(Cl)c2C[C@H]1CNCC[C@H]1CN(c2cnc3c(n2)NC(=O)CO3)C(=O)O1 [Example 402, 6-[(5S)-5-[2-[[(1S,2S)-1-amino-4-chloro-2,3-dihydro-1H-inden-2-yl]methylamino]ethyl]-2-oxo-1,3-oxazolidin-3-yl]-4H-pyrazino[2,3-b][1,4]oxazin-3-one]	< 97.7
CNC(=O)COc1cc(F)c2c(c1)CC(CNCCC1CN(c3ccc4c(n3)NC(=O)CS4)C(=O)O1)C2 (centres unmarked) [Example 74, 2-[[7-fluoro-2-[[2-[2-oxo-3-(3-oxo-4H-pyrido[3,2-b][1,4]thiazin-6-yl)-1,3-oxazolidin-5-yl]ethylamino]methyl]-2,3-dihydro-1H-inden-5-yl]oxy]-N-methylacetamide: formic acid]	118
Cc1ncc(F)c2c1CC(CN[C@H]1C[C@@H](C3CN(c4cnc5c(n4)NC(=O)CO5)C(=O)O3)C1)C2 (some centres unmarked) [Example 362]	157
N#Cc1cccc2c1CC(CN[C@H]1C[C@]3(CN(c4ccc5c(n4)NC(=O)CO5)C(=O)O3)C1)C2 (stereo partly drawn) [Example 183, 2-[[[2,4-cis-6-oxo-7-(3-oxo-4H-pyrido[3,2-b][1,4]oxazin-6-yl)-5-oxa-7-azaspiro[3.4]octan-2-yl]amino]methyl]-2,3-dihydro-1H-indene-4-carbonitrile]	153
Cc1ncc(F)c2c1CC(N[C@H]1CC[C@]3(CC1)CN(c1cnc4c(n1)NC(=O)CO4)C(=O)O3)C2 (stereo partly drawn) [Example 297, trans-6-[8-[(4-fluoro-1-methyl-6,7-dihydro-5H-cyclopenta[c]pyridin-6-yl)amino]-2-oxo-1-oxa-3-azaspiro[4.5]decan-3-yl]-4H-pyrazino[2,3-b][1,4]oxazin-3-one; formic acid]	249
Cc1c(F)cnc2c1CC(CN1CCC3(CC1)CN(c1cnc4c(n1)NC(=O)CO4)C(=O)O3)C2 (centres unmarked) [Example 301, 6-[8-[(3-fluoro-4-methyl-6,7-dihydro-5H-cyclopenta[b]pyridin-6-yl)methyl]-2-oxo-1-oxa-3,8-diazaspiro[4.5]decan-3-yl]-4H-pyrazino[2,3-b][1,4]oxazin-3-one]	< 97.7
O=C1COc2ccc(N3CC(CCCNC4Cc5ccccc5C4)OC3=O)nc2N1 (centres unmarked) [Example 9, 6-[5-[3-(2,3-dihydro-1H-inden-2-ylamino)propyl]-2-oxo-1,3-oxazolidin-3-yl]-4H-pyrido[3,2-b][1,4]oxazin-3-one; formic acid]	439
O=C1COc2ccc(N3CC(CCNCC4Cc5c(ccnc5Cl)C4O)OC3=O)nc2N1 (racemic) [Example 41, 6-[2-oxo-5-[2-[[rac-(5,6-trans)-1-chloro-5-hydroxy-6,7-dihydro-5H-cyclopenta[c]pyridin-6-yl]methylamino]ethyl]-1,3-oxazolidin-3-yl]-4H-pyrido[3,2-b][1,4]oxazin-3-one; formic acid]	728
Cc1cnc(C)c2c1CC(CNCCC1CN(c3cnc4c(n3)NC(=O)CO4)C(=O)O1)C2 (centres unmarked) [Example 268, 6-[5-[2-[(1,4-Dimethyl-6,7-dihydro-5H-cyclopenta[c]pyridin-6-yl)methylamino]ethyl]-2-oxo-1,3-oxazolidin-3-yl]-4H-pyrazino[2,3-b][1,4]oxazin-3-one]	< 97.7
O=C1COc2ncc(N3CC(CCNCC4Cc5cc(OCCn6cnnn6)cc(F)c5C4)OC3=O)nc2N1 (centres unmarked) [Example 347, 6-[5-[2-[[4-fluoro-6-[2-(tetrazol-1-yl)ethoxy]-2,3-dihydro-1H-inden-2-yl]methylamino]ethyl]-2-oxo-1,3-oxazolidin-3-yl]-4H-pyrazino[2,3-b][1,4]oxazin-3-one; formic acid]	175
NC1CC(NC2Cc3cccc(F)c3C2)CCC12CN(c1ccc3c(n1)NC(=O)CO3)C(=O)O2 (racemic) [Example 167, 6-[rac-5,6-cis-5,8-trans-6-amino-8-[(4-fluoro-2,3-dihydro-1H-inden-2-yl)amino]-2-oxo-1-oxa-3-azaspiro[4.5]decan-3-yl]-4H-pyrido[3,2-b][1,4]oxazin-3-one; 2,2,2-trifluoroacetic acid]	190
O=C1COc2ccc(N3C(=O)OC4CC(NCCC5Cc6cccc(Cl)c6C5)CCC43)nc2N1 (racemic) [Example 32, 6-[rac-3a,7a-trans-6,7a-cis-6-[2-(4-chloro-2,3-dihydro-1H-inden-2-yl)ethylamino]-2-oxo-3a,4,5,6,7,7a-hexahydro-1,3-benzoxazol-3-yl]-4H-pyrido[3.2-b][1,4]oxazin-3-one]	710
N#CCOc1cc(F)c2c(c1)CC(CNCCC1CN(c3cnc4c(n3)NC(=O)CO4)C(=O)O1)C2 (centres unmarked) [Example 366, 2-[[7-fluoro-2-[[2-[2-oxo-3-(3-oxo-4H-pyrazino[2,3-b][1,4]oxazin-6-yl)-1,3-oxazolidin-5-yl]ethylamino]methyl]-2,3-dihydro-1H-inden-5-yl]oxy]acetonitrile; formic acid]	144
N#Cc1cc(OCC2(N)CC2)cc2c1CC(CNCCC1CN(c3ccc4c(n3)NC(=O)CO4)C(=O)O1)C2 (centres unmarked) [Example 185, 6-[(1-aminocyclopropyl)methoxy]-2-[[2-[2-oxo-3-(3-oxo-4H-pyrido[3,2-b][1,4]oxazin-6-yl)-1,3-oxazolidin-5-yl]ethylamino]methyl]-2,3-dihydro-1H-indene-4-carbonitrile]	< 97.7
NC1(COc2ncc3c(c2Cl)CC(CNCCC2CN(c4ccc5c(n4)NC(=O)CO5)C(=O)O2)C3)CC1 (centres unmarked) [Example 181, 6-[5-[2-[[3-[(1-aminocyclopropyl)methoxy]-4-chloro-6,7-dihydro-5H-cyclopenta[c]pyridin-6-yl]methylamino]ethyl]-2-oxo-1,3-oxazolidin-3-yl]-4H-pyrido[3,2-b][1,4]oxazin-3-one]	< 97.7
Cc1nccc2c1CC(NCCCC1CN(c3ccc4c(n3)NC(=O)CO4)C(=O)O1)C2 (centres unmarked) [Example 94, 6-[5-[3-[(1-methyl-6,7-dihydro-5H-cyclopenta[c]pyridin-6-yl)amino]propyl]-2-oxo-1,3-oxazolidin-3-yl]-4H-pyrido[3,2-b][1,4]oxazin-3-one]	485
N#Cc1nc(OCCN)cc2c1CC(CNCCC1CN(c3ccc4c(n3)NC(=O)CO4)C(=O)O1)C2 (centres unmarked) [Example 127, 3-(2-aminoethoxy)-6-[[2-[2-oxo-3-(3-oxo-4H-pyrido[3,2-b][1,4]oxazin-6-yl)-1,3-oxazolidin-5-yl]ethylamino]methyl]-6,7-dihydro-5H-cyclopenta[c]pyridine-1-carbonitrile; formic acid]	189
CNC(=O)COc1cc(C#N)c2c(c1C)CC(CNCCC1CN(c3cnc4c(n3)NC(=O)CO4)C(=O)O1)C2 (centres unmarked) [Example 383, 2-[[7-cyano-4-methyl-2-[[2-[2-oxo-3-(3-oxo-4H-pyrazino[2,3-b][1,4]oxazin-6-yl)-1,3-oxazolidin-5-yl]ethylamino]methyl]-2,3-dihydro-1H-inden-5-yl]oxy]-N-methylacetamide]	139

Same assay, conditions: strain Escherichia coli ATCC 25922; 10-point broth dilution, optical density at 600 nm over 16 h; read-out: Escherichia coli growth inhibition IC50

Compound	IC50 [nM]
2-[[2-[2-oxo-3-(3-oxo-4H-pyrazino[2,3-b][1,4]oxazin-6-yl)-1,3-oxazolidin-5-yl]ethylamino]methyl]-6-(1H-triazol-5-ylmethoxy)-2,3-dihydro-1H-indene-4-carbonitrile [Example 426]	156
O=C1COc2ccc(N3CC(CCNCC4Cc5cccc(Cl)c5C4)OC3=O)nc2N1 (single isomer, unassigned; isomer b) [Example 7, 6-[5-[2-[(4-chloro-2,3-dihydro-1H-inden-2-yl)methylamino]ethyl]-2-oxo-1,3-oxazolidin-3-yl]-4H-pyrido[3,2-b][1,4]oxazin-3-one, Isomer B; formic acid]	< 97.7
